The test deals with T1, human KISS-receptor (Homo sapiens, UniProt Q969F8).
T1 construct: expressed in transfected cells; host or cells: CHO-k1 cells that also express mitochondrially targeted aequorin, Gα16 and an NFAT-luciferase reporter
The test can be described thus: NFAT-regulated luciferase reporter gene assay in CHO-k1 cells, agonist activity. It is filed as cell-based. Background: A reporter such as luciferase makes a cellular process visible.

[1] abbreviates: pEC50 serum, presence of 20% human serum.
[2] abbreviates: absence of human serum, read-out: pEC50 (converted).
[3] abbreviates: presence of 20% human serum, read-out: pEC50 serum (converted).

Molecules are shown by their SMILES. pEC50: −log10 of the molar value. Where two headings read alike, the source gives them in different places.

T1 sequence (Q969F8 whole entry): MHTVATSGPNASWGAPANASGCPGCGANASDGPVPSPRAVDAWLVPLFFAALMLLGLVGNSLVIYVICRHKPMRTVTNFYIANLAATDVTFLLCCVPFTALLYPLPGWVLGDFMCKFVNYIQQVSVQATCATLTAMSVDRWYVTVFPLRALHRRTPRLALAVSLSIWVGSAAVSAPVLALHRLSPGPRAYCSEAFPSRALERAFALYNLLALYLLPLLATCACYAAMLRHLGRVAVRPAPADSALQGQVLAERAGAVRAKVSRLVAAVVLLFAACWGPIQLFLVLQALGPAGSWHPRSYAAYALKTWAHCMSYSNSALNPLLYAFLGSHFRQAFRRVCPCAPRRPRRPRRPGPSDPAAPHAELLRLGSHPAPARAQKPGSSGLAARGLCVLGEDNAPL
Experimental: CHO-k1 cells were used that expressed the mitochondrially targeted aequorine and Gα16 (from Euroscreen, Brussels, Belgium), a Nuclear Factor of Activated T-cells-responsive element (NFAT) under the control of a promoter directing the expression of a firefly luciferase reporter gene (pNFAT-TALuc obtained from Clontech, Mountain View, Calif.), and the human GPR54-R Hygro(+)-hGPR54WT c4; MSD). These cells were cultured in Dulbecco's Modified Eagle Medium: Nutrient Mixture F-12 (DMEM/F12) (Invitrogen, Carlsbad, Calif.), supplemented with 10% (vol/vol) filtered bovine serum (Hyclone, Thermo Fisher Scientific, Waltham, Mass.), 100 U/ml penicillin G, 100 μg/ml streptomycin, 400 μg/ml Geneticin and 400 μg/ml Hygromycin (Invitrogen). […] Kisspeptin-10 was used as a standard. […] When the conjugates were tested in the presence of a final percentage of 20% human serum, 10 μl assay medium containing 60% human serum (Sigma-Aldrich, #H4522) was added to the wells. In the absence of human serum, 10 μl of assay medium was added. Cells were harvested and diluted to a concentration of 7.5E5 cells/ml in assay medium without 0.1% BSA. 10 μl of cell solution was added to the compound wells. After incubation for 4 hours in a humidified atmosphere at 5% CO2 and 37° C., the plate was left at room temperature for 30 minutes. Subsequently, 15 μl of Steadylite™ solution (PerkinElmer, Boston, Mass.) was added and the cells, protected from light, were allowed to lyse for 30 min at room temperature. Luminescence, indicated as relative luminescence units (RLU), was measured on an Envision Multilabel reader (PerkinElmer).

Turning to `CNC(=N)NCCC[C@H](NC(=O)[C@H](CC(C)C)NC(=O)NNC(=O)[C@H](Cc1ccccc1)NC(=O)[C@@H](NC(=O)[C@H](CC(N)=O)NC(=O)[C@H](Cc1c[nH]c2ccccc12)NC(=O)[C@H](CC(N)=O)NC(=O)[C@@H](Cc1ccc(O)cc1)NC(=O)CSCCC(=O)NCCOCCOCCOCCO[C@H]1[C@H](OC)[C@@H](OC)[C@@H](O[C@H]2[C@H](OC)[C@@H](OC)[C@H](O[C@H]3[C@H](OS(=O)(=O)O)[C@@H](OS(=O)(=O)O)[C@@H](O[C@H]4[C@H](OC)[C@@H](OC)[C@H](O[C@H]5[C@H](OS(=O)(=O)O)[C@@H](OS(=O)(=O)O)[C@@H](OC)O[C@@H]5COS(=O)(=O)O)O[C@H]4C(=O)O)O[C@@H]3COS(=O)(=O)O)O[C@@H]2C(=O)O)O[C@@H]1COS(=O)(=O)O)[C@@H](C)O)C(=O)N[C@@H](Cc1ccccc1)C(N)=O` [Conjugate C2], the negative-log EC50 (pEC50) – broadly, the EC50 on a negative log10 scale, so that one unit is a factor of ten – is 10.11 (pEC50, absence of human serum) and 8.04 under setting [1].
The matching figures for `CNC(=N)NCCC[C@H](NC(=O)[C@H](CC(C)C)NC(=O)NNC(=O)[C@H](Cc1ccccc1)NC(=O)[C@@H](NC(=O)[C@H](CC(N)=O)NC(=O)[C@@H]1C[C@@H](O)CN1C(=O)[C@@H](Cc1ccc(O)cc1)NC(=O)CCCCn1cc(CCC(=O)NCCOCCOCCOCCO[C@H]2[C@H](OC)[C@@H](OC)[C@@H](O[C@H]3[C@H](OC)[C@@H](OC)[C@H](O[C@H]4[C@H](OS(=O)(=O)O)[C@@H](OS(=O)(=O)O)[C@@H](O[C@H]5[C@H](OC)[C@@H](OC)[C@H](O[C@H]6[C@H](OC)[C@@H](OS(=O)(=O)O)[C@@H](OC)O[C@@H]6COS(=O)(=O)O)O[C@H]5C(=O)O)O[C@@H]4COS(=O)(=O)O)O[C@@H]3C(=O)O)O[C@@H]2COS(=O)(=O)O)nn1)[C@@H](C)O)C(=O)N[C@@H](Cc1c[nH]c2ccccc12)C(N)=O` [Conjugate C30]: 10.32 and 9.71.
Turning to `CNC(=N)NCCC[C@H](NC(=O)[C@H](CC(C)C)NC(=O)NNC(=O)[C@H](Cc1ccccc1)NC(=O)[C@@H](NC(=O)[C@H](CC(N)=O)NC(=O)[C@@H]1C[C@@H](O)CN1C(=O)[C@@H](Cc1ccc(O)cc1)NC(=O)CCOCCOCCOCCOCCn1cc(CCC(=O)NCCOCCOCCOCCOCC(=O)NCCOCCOCCOCCO[C@H]2[C@H](OC)[C@@H](OC)[C@@H](O[C@H]3[C@H](OC)[C@@H](OC)[C@H](O[C@H]4[C@H](OS(=O)(=O)O)[C@@H](OS(=O)(=O)O)[C@@H](O[C@H]5[C@H](OC)[C@@H](OC)[C@H](O[C@H]6[C@H](OS(=O)(=O)O)[C@@H](OS(=O)(=O)O)[C@@H](OC)O[C@@H]6COS(=O)(=O)O)O[C@H]5C(=O)O)O[C@@H]4COS(=O)(=O)O)O[C@@H]3C(=O)O)O[C@@H]2COS(=O)(=O)O)nn1)[C@@H](C)O)C(=O)N[C@@H](Cc1c[nH]c2ccccc12)C(N)=O` [Conjugate C33], the EC50 by setting is: under setting [2], 0.0589 nM; under setting [3], 0.912 nM.
Take `CO[C@H]1O[C@H](COS(=O)(=O)O)[C@@H](O[C@@H]2O[C@@H](C(=O)O)[C@@H](O[C@H]3O[C@H](COS(=O)(=O)O)[C@@H](O[C@@H]4O[C@H](C(=O)O)[C@@H](O[C@H]5O[C@H](COS(=O)(=O)O)[C@@H](OCCOCCOCCOCCNC(=O)CCc6cn(CCCCC(=O)N[C@H](Cc7ccc(O)cc7)C(=O)N7C[C@H](O)C[C@H]7C(=O)N[C@@H](CC(N)=O)C(=O)N[C@H](C(=O)N[C@@H](Cc7ccccc7)C(=O)NCC(=O)N[C@@H](CC(C)C)C(=O)N[C@@H](CCCNC(=N)N)C(=O)N[C@@H](Cc7c[nH]c8ccccc78)C(N)=O)[C@@H](C)O)nn6)[C@H](OC)[C@H]5OC)[C@H](OC)[C@H]4OC)[C@H](OS(=O)(=O)O)[C@H]3OS(=O)(=O)O)[C@H](OC)[C@H]2OC)[C@H](OC)[C@H]1OS(=O)(=O)O` [Conjugate C38]: the EC50 by setting is: under setting [2], 0.0427 nM; under setting [3], 0.316 nM.
Turning to `CNC(=N)NCCC[C@H](NC(=O)[C@H](CC(C)C)NC(=O)NNC(=O)[C@H](Cc1ccccc1)NC(=O)[C@@H](NC(=O)[C@H](CC(N)=O)NC(=O)[C@H](Cc1c[nH]c2ccccc12)NC(=O)[C@H](CC(N)=O)NC(=O)[C@@H](Cc1ccc(O)cc1)NC(=O)CCCCn1cc(CCC(=O)NCCOCCOCCOCCOCC(=O)NCCOCCOCCOCCO[C@H]2[C@H](OC)[C@@H](OC)[C@@H](O[C@H]3[C@H](OC)[C@@H](OC)[C@H](O[C@H]4[C@H](OS(=O)(=O)O)[C@@H](OS(=O)(=O)O)[C@@H](O[C@H]5[C@H](OC)[C@@H](OC)[C@H](O[C@H]6[C@H](OS(=O)(=O)O)[C@@H](OS(=O)(=O)O)[C@@H](OC)O[C@@H]6COS(=O)(=O)O)O[C@H]5C(=O)O)O[C@@H]4COS(=O)(=O)O)O[C@@H]3C(=O)O)O[C@@H]2COS(=O)(=O)O)nn1)[C@@H](C)O)C(=O)N[C@@H](Cc1ccccc1)C(N)=O` [Conjugate C6], the pEC50 reads like this: (pEC50, absence of human serum) 9.83; under setting [1], 8.25.
As for `CO[C@H]1O[C@H](COS(=O)(=O)O)[C@@H](O[C@@H]2O[C@@H](C(=O)O)[C@@H](O[C@H]3O[C@H](COS(=O)(=O)O)[C@@H](O[C@@H]4O[C@H](C(=O)O)[C@@H](O[C@H]5O[C@H](COS(=O)(=O)O)[C@@H](OCCOCCOCCOCCNC(=O)CCc6cn(CCCCC(=O)N[C@H](Cc7ccc(O)cc7)C(=O)N7C[C@H](O)C[C@H]7C(=O)N[C@@H](CC(N)=O)C(=O)N[C@H](C(=O)N[C@@H](Cc7ccccc7)C(=O)NNC(=O)N[C@@H](CC(C)C)C(=O)N[C@@H](CCCNC(=N)N)C(=O)N[C@@H](Cc7c[nH]c8ccccc78)C(N)=O)[C@@H](C)O)nn6)[C@H](OC)[C@H]5OC)[C@H](OC)[C@H]4OC)[C@H](OS(=O)(=O)O)[C@H]3OS(=O)(=O)O)[C@H](OC)[C@H]2OC)[C@H](OC)[C@H]1OS(=O)(=O)O` [Conjugate C36], the EC50 was 0.0126 nM under setting [2] and 0.0912 nM under setting [3].
With `CO[C@H]1O[C@H](COS(=O)(=O)O)[C@@H](O[C@@H]2O[C@@H](C(=O)O)[C@@H](O[C@H]3O[C@H](COS(=O)(=O)O)[C@@H](O[C@@H]4O[C@H](C(=O)O)[C@@H](O[C@H]5O[C@H](COS(=O)(=O)O)[C@@H](OCCOCCOCCOCCNC(=O)CCc6cn(CCCCC(=O)N[C@H](Cc7ccc(O)cc7)C(=O)N7C[C@H](O)C[C@H]7C(=O)N[C@@H](CC(N)=O)C(=O)N[C@H](C(=O)N[C@@H](Cc7ccccc7)C(=O)NNC(=O)N[C@@H](CC(C)C)C(=O)N[C@@H](CCCNC(=N)N)C(=O)N[C@@H](Cc7c[nH]c8ccccc78)C(N)=O)[C@@H](C)O)nn6)[C@H](OC)[C@H]5OC)[C@H](OC)[C@H]4OC)[C@H](OS(=O)(=O)O)[C@H]3OS(=O)(=O)O)[C@H](OC)[C@H]2OC)[C@H](OS(=O)(=O)O)[C@H]1OS(=O)(=O)O` [Conjugate C37], the EC50 reads like this: under setting [2], 0.0126 nM; under setting [3], 1.15 nM.
Turning to `CNC(=N)NCCC[C@H](NC(=O)[C@H](CC(C)C)NC(=O)CNC(=O)[C@H](Cc1ccccc1)NC(=O)[C@@H](NC(=O)[C@H](CC(N)=O)NC(=O)[C@H](CCCCNC(=O)CCOCCOCCOCCOCCn1cc(CCC(=O)NCCOCCOCCOCCO[C@H]2[C@H](OC)[C@@H](OC)[C@@H](O[C@H]3[C@H](OC)[C@@H](OC)[C@H](O[C@H]4[C@H](OS(=O)(=O)O)[C@@H](OS(=O)(=O)O)[C@@H](O[C@H]5[C@H](OC)[C@@H](OC)[C@H](O[C@H]6[C@H](OS(=O)(=O)O)[C@@H](OS(=O)(=O)O)[C@@H](OC)O[C@@H]6COS(=O)(=O)O)O[C@H]5C(=O)O)O[C@@H]4COS(=O)(=O)O)O[C@@H]3C(=O)O)O[C@@H]2COS(=O)(=O)O)nn1)NC(=O)[C@H](CC(N)=O)NC(=O)[C@@H](N)Cc1ccc(O)cc1)[C@@H](C)O)C(=O)N[C@@H](Cc1ccccc1)C(N)=O` [Conjugate C28], the pEC50 is, setting by setting: (pEC50, absence of human serum) 9.85; under setting [1], 8.37.
Take `CNC(=N)NCCC[C@H](NC(=O)[C@H](CC(C)C)NC(=O)NNC(=O)[C@H](Cc1ccccc1)NC(=O)[C@@H](NC(=O)[C@H](CC(N)=O)NC(=O)[C@H](Cc1c[nH]c2ccccc12)NC(=O)[C@H](CC(N)=O)NC(=O)[C@@H](Cc1ccc(O)cc1)Nc1c(NCCOCCOCCOCCOCC(=O)NCCOCCOCCOCCO[C@H]2[C@H](OC)[C@@H](OC)[C@@H](O[C@H]3[C@H](OC)[C@@H](OC)[C@H](O[C@H]4[C@H](OS(=O)(=O)O)[C@@H](OS(=O)(=O)O)[C@@H](O[C@H]5[C@H](OC)[C@@H](OC)[C@H](O[C@H]6[C@H](OS(=O)(=O)O)[C@@H](OS(=O)(=O)O)[C@@H](OC)O[C@@H]6COS(=O)(=O)O)O[C@H]5C(=O)O)O[C@@H]4COS(=O)(=O)O)O[C@@H]3C(=O)O)O[C@@H]2COS(=O)(=O)O)c(=O)c1=O)[C@@H](C)O)C(=O)N[C@@H](Cc1ccccc1)C(N)=O` [Conjugate C3]: the EC50 by setting is: under setting [2], 0.0776 nM; under setting [3], 6.31 nM.
In the case of `CNC(=N)NCCC[C@H](NC(=O)[C@H](CC(C)C)NC(=O)NNC(=O)[C@H](Cc1ccccc1)NC(=O)[C@@H](NC(=O)[C@H](CC(N)=O)NC(=O)[C@H](Cc1c[nH]c2ccccc12)NC(=O)[C@H](CC(N)=O)NC(=O)[C@H](Cc1ccc(O)cc1)NC(=O)COCCOCCOCCOCCn1cc(CCC(=O)NCCOCCOCCOCCO[C@H]2[C@H](OC)[C@@H](OC)[C@@H](O[C@H]3[C@H](OC)[C@@H](OC)[C@H](O[C@H]4[C@H](OS(=O)(=O)O)[C@@H](OS(=O)(=O)O)[C@@H](O[C@H]5[C@H](OC)[C@@H](OC)[C@H](O[C@H]6[C@H](OS(=O)(=O)O)[C@@H](OS(=O)(=O)O)[C@@H](OC)O[C@@H]6COS(=O)(=O)O)O[C@H]5C(=O)O)O[C@@H]4COS(=O)(=O)O)O[C@@H]3C(=O)O)O[C@@H]2COS(=O)(=O)O)nn1)[C@@H](C)O)C(=O)N[C@@H](Cc1ccccc1)C(N)=O` [Conjugate C23], the EC50 reads like this: under setting [2], 0.209 nM; under setting [3], 2.45 nM.
As to `CO[C@H]1O[C@H](COS(=O)(=O)O)[C@@H](O[C@@H]2O[C@@H](C(=O)O)[C@@H](O[C@H]3O[C@H](COS(=O)(=O)O)[C@@H](O[C@@H]4O[C@H](C(=O)O)[C@@H](O[C@H]5O[C@H](COS(=O)(=O)O)[C@@H](OCCOCCOCCOCCNC(=O)CCc6cn(CCOCCOCCOCCOCCC(=O)N[C@@H](Cc7ccc(O)cc7)C(=O)N7C[C@H](O)C[C@H]7C(=O)N[C@@H](CC(N)=O)C(=O)N[C@H](C(=O)N[C@@H](Cc7ccccc7)C(=O)NNC(=O)N[C@@H](CC(C)C)C(=O)N[C@@H](CCCNC(=N)N)C(=O)N[C@@H](Cc7c[nH]c8ccccc78)C(N)=O)[C@@H](C)O)nn6)[C@H](OC)[C@H]5OC)[C@H](OC)[C@H]4OC)[C@H](OS(=O)(=O)O)[C@H]3OS(=O)(=O)O)[C@H](OC)[C@H]2OC)[C@H](OC)[C@H]1OS(=O)(=O)O` [Conjugate C40], the pEC50 reads like this: (pEC50, absence of human serum) 9.46; under setting [1], 8.78.

Values taken from patent US9127038B2, “Kisspeptide-pentasaccharide conjugates” (Merck Sharp & Dohme Corp., priority 2011, dated 2015).
